The record followed here is ChEMBL document CHEMBL3232841, “New aminobenzenesulfonamide-thiourea conjugates: synthesis and carbonic anhydrase inhibition and docking studies” (Eur J Med Chem, 2014).

Each structure is given as a SMILES string.

For this assay, the target named is Carbonic anhydrase 2 (Bos taurus, UniProt P00921). Description: Inhibition of bovine erythrocyte carbonic anhydrase 2 using p-nitrophenyl acetate as substrate preincubated for 10 mins before substrate addition measured after 30 mins by spectrophotometric analysis.
Carbonic anhydrase 2, sequence (P00921 whole entry): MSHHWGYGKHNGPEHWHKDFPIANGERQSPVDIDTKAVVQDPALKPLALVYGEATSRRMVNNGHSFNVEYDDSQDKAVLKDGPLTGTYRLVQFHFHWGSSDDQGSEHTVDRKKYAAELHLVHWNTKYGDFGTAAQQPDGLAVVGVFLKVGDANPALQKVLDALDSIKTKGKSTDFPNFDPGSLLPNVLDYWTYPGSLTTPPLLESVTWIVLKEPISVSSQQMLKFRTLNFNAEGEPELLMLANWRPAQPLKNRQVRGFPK

`NS(=O)(=O)c1cccc(NC(=S)NC(=O)c2cccc(Cl)c2)c1`: the midpoint of inhibition, the IC50, lay at 0.22 µM.
The molecule `CC(C)(C)C(=O)NC(=S)Nc1cccc(S(N)(=O)=O)c1` displayed an IC50 of 1.28 µM.
In turn, `NS(=O)(=O)c1ccc(NC(=S)NC(=O)c2cccs2)cc1` came in with an IC50 of 0.011 µM.
Next, `NS(=O)(=O)c1cccc(NC(=S)NC(=O)c2cccc([N+](=O)[O-])c2)c1`: 0.49 µM; `NS(=O)(=O)c1cccc(NC(=S)NC(=O)C23CC4CC(CC(C4)C2)C3)c1`: 5.58 µM; `NS(=O)(=O)c1cccc(NC(=S)NC(=O)c2ccccc2Cl)c1`: 13.5 µM.
As for `NS(=O)(=O)c1cccc(NC(=S)NC(=O)c2cccs2)c1`, the IC50 came to 0.052 µM.
On to `NS(=O)(=O)c1cccc(NC(=S)NC(=O)c2ccc(Cl)cc2Cl)c1`, for which the IC50 came to 17.1 µM.
The molecule `NS(=O)(=O)c1cccc(NC(=S)NC(=O)c2ccco2)c1` yielded an IC50 of 9.76 µM.
Molecule `NS(=O)(=O)c1cccc(NC(=S)NC(=O)c2cc3ccccc3oc2=O)c1` displayed a concentration for half-maximal inhibition (IC50) of 13.4 µM.
The figure for `NS(=O)(=O)c1cccc(NC(=S)NC(=O)c2cc([N+](=O)[O-])cc([N+](=O)[O-])c2)c1` is 14.2 µM; for `NS(=O)(=O)c1cccc(NC(=S)NC(=O)c2ccc(Cl)cc2)c1` it is 5.64 µM.
As to `NS(=O)(=O)c1ccc(NC(=S)NC(=O)c2cc3ccccc3oc2=O)cc1`, 11.3 µM corresponded to half-maximal inhibition (IC50).
